Assay results taken from paper PMC2798597 (Biochemical pharmacology, 2009).

Assays:
MCF-7/adr (ABCB1) = assay: MTT cytotoxicity / MDR reversal; format: cell-based, human; details: MCF-7/adr cells
SW1573 = assay: MTT cytotoxicity / MDR reversal; format: cell-based, human; details: SW1573 cells; +5 µM FG020326
[1] = FG020326 plasma levels in mice; format: in vivo; details: NIH mice, 100 mg/kg p.o.; for plasma concentration at 8 h: 8 h after administration
KB-3-1 = assay: MTT cytotoxicity / MDR reversal; format: cell-based, human; details: KB-3-1 cells; +5 µM FG020326
SW1573/2R120 (LRP) = assay: MTT cytotoxicity / MDR reversal; format: cell-based, human; details: SW1573/2R120 cells; +5 µM FG020326
NIH3T3/MRP-4-2 (ABCC4) = assay: MTT cytotoxicity / MDR reversal; format: cell-based, murine; details: NIH3T3/MRP-4-2 cells; +5 µM FG020326
KBv200 cells [2] = assay: Dox efflux; format: cell-based, human; details: 5 µM FG020326
ABCB1 = ABCB1 (Homo sapiens, UniProt P08183); format: biochemical; details: read-out: IC50, inhibition of ABCB1 ATPase activity; Vi-sensitive ATPase; membrane vesicles of High Five insect cells
MCF-7 = assay: MTT cytotoxicity / MDR reversal; format: cell-based, human; details: MCF-7 cells
S1 = assay: MTT cytotoxicity / MDR reversal; format: cell-based; details: S1 cells; +5 µM FG020326
KB-CV60 (ABCC1) = assay: MTT cytotoxicity / MDR reversal; format: cell-based, human; details: KB-CV60 cells; +5 µM FG020326
KBv200 cell xenografts = assay: MDR human carcinoma xenograft model; format: in vivo, athymic nude mice
KBv200 cells [3] = assay: Intracellular Dox accumulation; format: cell-based, human
KB cells [4] = assay: Dox efflux; format: cell-based, human; details: 5 µM FG020326
S1-M1-80 (ABCG2) = assay: MTT cytotoxicity / MDR reversal; format: cell-based; details: S1-M1-80 cells; +5 µM FG020326
KB cells [5] = assay: Intracellular Dox accumulation; format: cell-based, human; details: drug sensitive KB cells; 0.625-10 µM
[6] = tested on: ABCB1 expression in KBv200 cells; details: 48 h, Western blot
[7] = tested on: the entire cell lines tested; assay: MTT cytotoxicity of FG020326 alone; format: cell-based
NIH3T3 = assay: MTT cytotoxicity / MDR reversal; format: cell-based, murine; details: NIH3T3 cells; +5 µM FG020326
KB = assay: MTT cytotoxicity / MDR reversal; format: cell-based, human; details: KB cells
KB cells [8] = assay: ABCB1 function analysis, Rho 123 retention; format: cell-based, human; details: drug sensitive KB cells
KBv200 (ABCB1) = assay: MTT cytotoxicity / MDR reversal; format: cell-based, human; details: KBv200 cells
[9] = VCR experiment, VCR 0.2 mg/kg i.p. q2d×6, FG020326 100 mg/kg p.o. q2d×6
[10] = paclitaxel experiment, paclitaxel 18 mg/kg i.p. q5d×3, FG020326 100 mg/kg p.o.

ABCB1, sequence (P08183 whole entry): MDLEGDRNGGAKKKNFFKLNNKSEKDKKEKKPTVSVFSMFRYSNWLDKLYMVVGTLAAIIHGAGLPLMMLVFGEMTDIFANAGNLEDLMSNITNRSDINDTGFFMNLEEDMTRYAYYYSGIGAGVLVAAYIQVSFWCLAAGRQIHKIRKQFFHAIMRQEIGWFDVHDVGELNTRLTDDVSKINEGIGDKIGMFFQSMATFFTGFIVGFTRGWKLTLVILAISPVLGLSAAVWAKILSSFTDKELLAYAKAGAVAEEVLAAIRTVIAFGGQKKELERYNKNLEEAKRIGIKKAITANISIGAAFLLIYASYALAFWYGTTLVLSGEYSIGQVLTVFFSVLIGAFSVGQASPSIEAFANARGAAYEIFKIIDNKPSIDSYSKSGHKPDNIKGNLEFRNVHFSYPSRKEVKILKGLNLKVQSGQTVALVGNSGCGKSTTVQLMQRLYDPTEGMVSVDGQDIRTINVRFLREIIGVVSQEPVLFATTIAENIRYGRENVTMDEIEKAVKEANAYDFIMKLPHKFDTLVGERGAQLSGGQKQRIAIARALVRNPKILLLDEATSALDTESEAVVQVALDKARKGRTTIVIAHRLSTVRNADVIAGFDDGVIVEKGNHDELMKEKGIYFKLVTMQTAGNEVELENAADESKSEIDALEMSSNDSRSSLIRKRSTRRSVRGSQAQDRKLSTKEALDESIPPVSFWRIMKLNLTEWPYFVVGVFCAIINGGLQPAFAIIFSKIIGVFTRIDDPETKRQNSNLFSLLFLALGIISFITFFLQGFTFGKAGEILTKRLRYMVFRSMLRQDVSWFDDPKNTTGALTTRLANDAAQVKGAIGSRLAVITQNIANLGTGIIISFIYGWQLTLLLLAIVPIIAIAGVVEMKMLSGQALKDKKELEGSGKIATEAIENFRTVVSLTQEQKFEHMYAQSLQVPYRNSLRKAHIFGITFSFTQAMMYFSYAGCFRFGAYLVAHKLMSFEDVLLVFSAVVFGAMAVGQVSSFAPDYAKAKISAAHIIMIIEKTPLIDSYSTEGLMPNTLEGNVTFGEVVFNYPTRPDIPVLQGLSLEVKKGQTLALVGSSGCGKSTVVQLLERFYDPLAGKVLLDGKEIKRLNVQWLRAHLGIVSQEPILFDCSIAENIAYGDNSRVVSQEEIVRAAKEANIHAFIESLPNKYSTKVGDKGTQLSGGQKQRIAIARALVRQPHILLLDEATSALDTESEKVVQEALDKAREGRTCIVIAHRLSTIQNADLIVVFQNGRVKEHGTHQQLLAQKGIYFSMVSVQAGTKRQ

In the case of `COC(=O)/C=C/c1ccc(-c2nc(-c3ccc(N(C)C(C)C)cc3)c(-c3ccc(N(C)C(C)C)cc3)[nH]2)cc1` [FG020326, 2-[(4-Methyl-trans-acrylate)phenyl]-4,5-bis-(4-N, N-methyl-isopropyl-aminophenyl)-1(H)-imidazole], the “fold-reversal (doxorubicin)” value (MCF-7/adr (ABCB1); +1.25 µM FG020326) is reported as “(6.4) fold”, the “fold-reversal (paclitaxel)” value (MCF-7/adr (ABCB1); +1.25 µM FG020326) is reported as “(3.5) fold” and the “fold-reversal (vincristine)” value (MCF-7/adr (ABCB1); +1.25 µM FG020326) is reported as “(2.3) fold”. The “fold-reversal (doxorubicin)” value (MCF-7/adr (ABCB1); +2.5 µM FG020326) was “(9.6) fold”, the “fold-reversal (paclitaxel)” value (MCF-7/adr (ABCB1); +2.5 µM FG020326) was “(8.8) fold” and the “fold-reversal (vincristine)” value (MCF-7/adr (ABCB1); +2.5 µM FG020326) was “(4.6) fold”. The “fold-reversal (cisplatin)” value (MCF-7/adr (ABCB1); +5 µM FG020326) was “(0.9) fold”, the “fold-reversal (doxorubicin)” value (MCF-7/adr (ABCB1); +5 µM FG020326) was “(14.3) fold” and the “fold-reversal (paclitaxel)” value (MCF-7/adr (ABCB1); +5 µM FG020326) was “(22.0) fold”. The “fold-reversal (vincristine)” value (MCF-7/adr (ABCB1); +5 µM FG020326) was “(10.7) fold”, the “fold-reversal (doxorubicin)” value (SW1573) was “(1.2) fold” and the peak plasma concentration ([1]; 100 mg/kg) was “about 5.3 µM”. The “plasma concentration at 8 h” value ([1]; 100 mg/kg) was “not less than 1.24 µM”, the “plasma concentration at 8 h” value ([1]; listed as FG020236, 100 mg/kg) was over 1240 nM and the “plasma concentration at 12 h” value ([1]; 12 h after administration) was 920 nM. The peak plasma concentration ([1]; listed as FG020236, 100 mg/kg) was 5.3 µM, the “fold-reversal (vincristine)” value (KB-3-1) was “(0.9) fold” and the “fold-reversal (doxorubicin)” value (SW1573/2R120 (LRP)) was “(1.0) fold”. For the same compound, the “fold-reversal (vincristine)” value (NIH3T3/MRP-4-2 (ABCC4)) was “(0.9) fold”, the “effect on efflux of Dox” value (KBv200 cells [2]) was “significantly inhibited the efflux of Dox” and the IC50 (ABCB1) was 2.5 µM. The “fold-reversal (doxorubicin)” value (MCF-7; +1.25 µM FG020326) was “(1.0) fold”, the “fold-reversal (paclitaxel)” value (MCF-7; +1.25 µM FG020326) was “(1.1) fold” and the “fold-reversal (vincristine)” value (MCF-7; +1.25 µM FG020326) was “(0.9) fold”. For the same compound, the “fold-reversal (doxorubicin)” value (MCF-7; +2.5 µM FG020326) was “(1.0) fold”, the “fold-reversal (paclitaxel)” value (MCF-7; +2.5 µM FG020326) was “(1.0) fold” and the “fold-reversal (vincristine)” value (MCF-7; +2.5 µM FG020326) was “(1.0) fold”. The “fold-reversal (cisplatin)” value (MCF-7; +5 µM FG020326) was “(0.9) fold”, the “fold-reversal (doxorubicin)” value (MCF-7; +5 µM FG020326) was “(0.9) fold” and the “fold-reversal (paclitaxel)” value (MCF-7; +5 µM FG020326) was “(1.0) fold”. The “fold-reversal (vincristine)” value (MCF-7; +5 µM FG020326) was “(0.9) fold”, the “fold-reversal (topotecan)” value (S1) was “(1.1) fold” and the “fold-reversal (vincristine)” value (KB-CV60 (ABCC1)) was “(0.9) fold”. For the same compound, the “Growth Inhibition” value (KBv200 cell xenografts; [9]) was 9.4%, the Weight of tumor (KBv200 cell xenografts; [9]) was 2.43 ± 0.70 g and the “Growth Inhibition” value (KBv200 cell xenografts; [10]) was 7.2%. For the same compound, the Weight of tumor (KBv200 cell xenografts; [10]) was 2.08 ± 1.00 g, the “enhancement of Dox accumulation” value (KBv200 cells [3]; 0.625 µM FG020326, 10 µM Dox) was 1.4 fold and the “enhancement of Dox accumulation” value (KBv200 cells [3]; 1.25 µM FG020326, 10 µM Dox) was 2.1 fold. For the same compound, the “enhancement of Dox accumulation” value (KBv200 cells [3]; 2.5 µM FG020326, 10 µM Dox) was 2.6 fold, the “enhancement of Dox accumulation” value (KBv200 cells [3]; 5 µM FG020326, 10 µM Dox) was 3.0 fold and the “enhancement of Dox accumulation” value (KBv200 cells [3]; 10 µM FG020326, 10 µM Dox) was 3.7 fold. For the same compound, the “effect on efflux of Dox” value (KB cells [4]) was “but not the KB cells”, the “fold-reversal (topotecan)” value (S1-M1-80 (ABCG2)) was “(1.0) fold” and the “effect on intracellular accumulation of Dox” value (KB cells [5]) was “did not significantly alter the intracellular accumulation of Dox”. The “effect on ABCB1 protein expression level” value [6] was “no marked difference”, the Cell survival ([7]; all cell lines, concentrations used to reverse MDR, data not shown) was over 90% and the IC50 ([7]; read-out: IC50 (cytotoxicity of FG020326 alone), MTT, entire cell lines tested) was over 50 µM. For the same compound, the “fold-reversal (vincristine)” value (NIH3T3) was “(0.9) fold”, the “fold-reversal (doxorubicin)” value (KB; +1.25 µM FG020326) was “(1.0) fold” and the “fold-reversal (paclitaxel)” value (KB; +1.25 µM FG020326) was “(1.0) fold”. For the same compound, the “fold-reversal (vincristine)” value (KB; +1.25 µM FG020326) was “(1.0) fold”, the “fold-reversal (doxorubicin)” value (KB; +2.5 µM FG020326) was “(1.0) fold” and the “fold-reversal (paclitaxel)” value (KB; +2.5 µM FG020326) was “(1.0) fold”. The “fold-reversal (vincristine)” value (KB; +2.5 µM FG020326) was “(1.0) fold”, the “fold-reversal (5-FU)” value (KB; +5 µM FG020326) was “(1.0) fold” and the “fold-reversal (doxorubicin)” value (KB; +5 µM FG020326) was “(0.9) fold”. For the same compound, the “fold-reversal (paclitaxel)” value (KB; +5 µM FG020326) was “(1.1) fold”, the “fold-reversal (vincristine)” value (KB; +5 µM FG020326) was “(1.0) fold” and the “effect on Rho 123 accumulation” value (KB cells [8]) was “not significantly altered”. The “fold-reversal (doxorubicin)” value (KBv200 (ABCB1); +1.25 µM FG020326) was “(4.2) fold”, the “fold-reversal (paclitaxel)” value (KBv200 (ABCB1); +1.25 µM FG020326) was “(5.0) fold” and the “fold-reversal (vincristine)” value (KBv200 (ABCB1); +1.25 µM FG020326) was “(16.7) fold”. The “fold-reversal (doxorubicin)” value (KBv200 (ABCB1); +2.5 µM FG020326) was “(8.0) fold”, the “fold-reversal (paclitaxel)” value (KBv200 (ABCB1); +2.5 µM FG020326) was “(10.3) fold” and the “fold-reversal (vincristine)” value (KBv200 (ABCB1); +2.5 µM FG020326) was “(34.7) fold”. For the same compound, the “fold-reversal (doxorubicin)” value (KBv200 (ABCB1); +5 µM FG020326) was “(12.2) fold”, the “fold-reversal (paclitaxel)” value (KBv200 (ABCB1); +5 µM FG020326) was “(30.4) fold” and the “fold-reversal (vincristine)” value (KBv200 (ABCB1); +5 µM FG020326) was “(57.3) fold”.
